Reference: patent US10544152B2, “5-HT2CR agonist analogs” (The Board of Regents of The University of Texas System, priority 2017, dated 2020)
Read-outs that look alike come from different tables or passages of the source.

Legend:
5-HT2CR [1] = target: T1, 5-HT2CR (Homo sapiens (Human), UniProt P28335); assay: Intracellular calcium (Cai++) release assay, FLIPR Calcium 4, U2OS cells stably expressing 5-HT2CR; assay type: cell-based; details: for Emax: % Cai++ release obtained with 1 μM of WAY163909 (1), U2OS cells expressing human 5-HT2CR; for EC50: Cai++ release, U2OS cell line stably expressing human 5-HT2CR, mean ± SEM, at least three independent experiments
Experimental: The PathHunter® U2OS HTR2C β-Arrestin cell line (5-HT2cR-U2OS; DiscoveRx) stably express the nonedited human 5-HT2CR isoform (h5-HT2CR). The 5-HT2CR-U2OS cells were grown in Assay Complete™ U2OS Medium 31 (DiscoveRx) at 37° C., 5% CO2 and 85% relative humidity according to manufacturer's recommendations utilizing AssayComplete™ Cell Detachment Reagent (DiscoveRx). Cells were passaged at 70-80% confluence and all experiments were conducted using cells in log phase growth.
The ability of the molecules to act as agonists to induce 5-HT2CR-mediated intracellular calcium (Cai^++) release was conducted in an U2OS cell line stably expressing the human 5-HT2CR.
Intracellular calcium (Cai^++) release was monitored using the FLIPR Calcium 4 Assay Kit (Molecular Devices) according to previously published protocols with minor modifications. See, e.g., Shashack, M. J., et al., ACS Chem Neurosci. 2 (11), 640-644 (2011); Seitz, P. K.; Bremer, N. M., et al., BMC Neurosci. 13, 25 (2012).
Cells were plated at 5,000-7,000 cells/well in Assay Complete™ Cell Plating Reagent 16 (DiscoveRx) in black-sided, clear bottomed 96-well tissue culture plates and allowed to adhere overnight. Medium was removed and replaced with 40 μl Hank's balanced salt solution without calcium, magnesium and phenol red (HBSS; Corning) plus 40 μl Calcium 4 dye solution in Buffer B supplemented with 2.5 mM probenecid (Sigma-Aldrich) to inhibit extracellular dye transport. Plates were incubated for 60 min at 37° C. followed by 30 min at room temperature in the dark.
Fluorescence (λex=485 nm, λem=525 nm) was measured using a FlexStation3 (Molecular Devices). Baseline was established for 17 secs before addition of 20 μl vehicle (HBSS without calcium or magnesium) or 5× concentrated compound. […] Maximum peak height was determined using FlexStation software (SoftMax Pro 5.4). After the final readings, cells were fixed in 2% paraformaldehyde overnight.
Peak responses from each well were normalized to total cell mass as determined with crystal violet staining. See e.g., Ding, C. et al., ACS Chem. Neurosci 3 (7), 538-545 (2012). […] Potency of the compounds was determined using the EC50 (concentration of compound required to achieve half-maximal response). The EC50 values were determined using 4-parameter nonlinear regression analysis and calculated from at least three independent experiments, each conducted in triplicate, and are presented as mean±SEM. Ratkowsky, D. A., et al., Biometrics 42, 575-582 (1986).

5-HT2AR = 5-HT2AR (Homo sapiens (Human), UniProt P28223); assay: CEREP radioligand displacement of [125I]-(±)-DOI at 5-HT2AR; details: read-out: mean percent inhibition of control specific binding, 5-HT2AR
Experimental: (§1) Compounds were submitted to CEREP to determine receptor selectivity at the 5-HT2 Compounds were tested at a single concentration of 10 μM in duplicate to determine their ability to displace [^125I]-(±)-DOI. The data are presented as mean percent inhibition of control specific binding for compound tested at each receptor subtype (Table 2). Significant inhibition is considered >50%; 25-50% inhibition is indicative of weak to moderate effects.

5-HT2BR = 5-HT2BR (Homo sapiens (Human), UniProt P41595); assay: CEREP radioligand displacement of [125I]-(±)-DOI at 5-HT2BR; details: duplicate, read-out: mean percent inhibition of control specific binding, 5-HT2BR
Experimental: as §1

5-HT2CR [2] = target: T1, 5-HT2CR; assay: CEREP radioligand displacement of [125I]-(±)-DOI at 5-HT2CR; details: duplicate, read-out: mean percent inhibition of control specific binding, 5-HT2CR
Experimental: as §1

5-HT2BR, sequence (P41595 whole entry): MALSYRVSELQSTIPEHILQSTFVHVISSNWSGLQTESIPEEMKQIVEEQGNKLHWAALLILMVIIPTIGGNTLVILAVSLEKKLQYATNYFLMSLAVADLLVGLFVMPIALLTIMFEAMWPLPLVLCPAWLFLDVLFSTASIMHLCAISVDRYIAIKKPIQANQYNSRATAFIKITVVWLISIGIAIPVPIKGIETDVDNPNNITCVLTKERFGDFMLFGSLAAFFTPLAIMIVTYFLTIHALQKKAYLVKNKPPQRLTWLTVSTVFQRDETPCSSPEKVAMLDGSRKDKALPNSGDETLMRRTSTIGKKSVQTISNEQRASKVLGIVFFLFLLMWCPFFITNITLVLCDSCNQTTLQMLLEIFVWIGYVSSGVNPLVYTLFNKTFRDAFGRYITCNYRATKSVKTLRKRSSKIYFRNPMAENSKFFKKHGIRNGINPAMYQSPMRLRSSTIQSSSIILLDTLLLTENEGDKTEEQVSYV
T1 sequence (P28335 33-458): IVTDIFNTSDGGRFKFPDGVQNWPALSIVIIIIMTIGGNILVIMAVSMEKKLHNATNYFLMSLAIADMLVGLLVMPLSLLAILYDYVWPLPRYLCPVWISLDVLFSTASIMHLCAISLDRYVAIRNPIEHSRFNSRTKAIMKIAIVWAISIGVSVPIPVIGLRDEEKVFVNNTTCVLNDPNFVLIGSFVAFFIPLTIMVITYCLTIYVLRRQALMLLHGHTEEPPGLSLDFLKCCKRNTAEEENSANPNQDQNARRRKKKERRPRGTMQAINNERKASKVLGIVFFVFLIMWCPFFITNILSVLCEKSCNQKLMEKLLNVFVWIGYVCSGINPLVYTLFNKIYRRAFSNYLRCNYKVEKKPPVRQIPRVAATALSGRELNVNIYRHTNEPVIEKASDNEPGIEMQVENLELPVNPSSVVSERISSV
5-HT2AR, sequence (P28223 whole entry): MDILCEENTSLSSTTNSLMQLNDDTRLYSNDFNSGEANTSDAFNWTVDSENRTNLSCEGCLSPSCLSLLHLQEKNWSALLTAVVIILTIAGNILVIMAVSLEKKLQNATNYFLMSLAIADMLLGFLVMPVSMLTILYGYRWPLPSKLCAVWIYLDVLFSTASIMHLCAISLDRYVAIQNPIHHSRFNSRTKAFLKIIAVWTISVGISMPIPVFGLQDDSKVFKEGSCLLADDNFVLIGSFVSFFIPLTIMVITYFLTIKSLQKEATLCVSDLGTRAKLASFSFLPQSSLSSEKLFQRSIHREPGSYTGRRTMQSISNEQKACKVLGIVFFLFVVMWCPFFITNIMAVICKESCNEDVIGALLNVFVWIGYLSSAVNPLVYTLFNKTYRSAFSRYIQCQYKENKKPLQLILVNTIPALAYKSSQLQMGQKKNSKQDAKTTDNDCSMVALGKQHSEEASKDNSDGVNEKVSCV

Emax (5-HT2CR [1]) [%]	EC50 (5-HT2CR [1]) [nM]	Structure (SMILES)	inhibition at 10 µM (5-HT2AR) [%]	inhibition at 10 µM (5-HT2BR) [%]	inhibition at 10 µM (5-HT2CR [2]) [%]	inhibition at 10 µM (5-HT2AR; 10 μM, duplicate, displacement of [125I]-(±)-DOI) [%]
95.9 ± 2.6	119 ± 11.5	Oc1ccc2c3c1[C@H]1CCC[C@H]1N3CCNC2 (racemic) [Compound 35]	–	–	–	–
100	0.33 ± 0.1	OCCc1c[nH]c2ccc(O)cc12 [Compound 27, reference compound]	–	–	–	–
103 ± 4.6	2.4 ± 0.4	COc1ccc2c3c1C1CCCC1N3CCNC2 (racemic) [Compound 18, 7-methoxy-2,3,4,7b,8,9,10,10a-octahydro-1H-cyclopenta[b][1,4]diazepino[6,7,1-hi]indole]	–	–	–	–
97.2 ± 2.3	51.9 ± 9.6	C#CCOCCOc1ccc2c3c1C1CCCC1N3CCNC2 (racemic) [Compound 44, 7-(2-(Prop-2-ynyloxy)ethoxy)-2,3,4,7b,8,9,10,10a-octahydro-1H-cyclopenta[b][1,4]diazepino[6,7,1-hi]indole]	–	–	–	–
95.2 ± 2.3	575 ± 112	C#CCOCCOCCOCCOc1ccc2c3c1C1CCCC1N3CCNC2 (stereo not shown) [Compound 46, 7-(2-(2-(2-(prop-2-ynyloxy)ethoxy)ethoxy)ethoxy)-2,3,4,7b,8,9,10,10a-octahydro-1H-cyclopenta[b][1,4]diazepino[6,7,1-hi]indole]	–	–	–	–
95.9 ± 1.5	1480 ± 238	COc1cc2c3c(c1)[C@H]1CCC[C@H]1N3CCNC2 (racemic) [Compound 17]	–	–	–	–

The next lines start with the compound.

Structure (SMILES)	Emax (5-HT2CR [1]) [%]	EC50 (5-HT2CR [1]) [nM]	inhibition at 10 µM (5-HT2AR) [%]	inhibition at 10 µM (5-HT2BR) [%]	inhibition at 10 µM (5-HT2CR [2]) [%]	inhibition at 10 µM (5-HT2AR; 10 μM, duplicate, displacement of [125I]-(±)-DOI) [%]
COc1ccc2c3c1[C@H]1CCC[C@H]1N3CCNC2 (racemic) [Compound 36, 7-methoxy-2,3,4,7b,8,9,10,10a-octahydro-1H-cyclopenta[b][1,4]diazepino[6,7,1-hi]indole]	105 ± 6.1	1.2 ± 0.3	86.5	98.6	100	–
C#CCOCCOCCOc1ccc2c3c1C1CCCC1N3CCNC2 (racemic) [Compound 45, 7-(2-(2-(prop-2-ynyloxy)ethoxy)ethoxy)-2,3,4,7b,8,9,10,10a-octahydro-1H-cyclopenta[b][1,4]diazepino[6,7,1-hi]indole]	99.3 ± 2.2	218 ± 53.1	–	67.7	99.6	67.1
c1cc2c3c(c1)[C@H]1CCC[C@H]1N3CCNC2 (racemic) [Compound 1, (7bR,10aR)-1,2,3,4,8,9,10,10a-octahydro-7bH-cyclopenta-[b][1,4]diazepino[6,7,1hi]indole, reference compound]	100	–	–	–	–	–
COc1ccc2c3c1[C@@H]1CCC[C@@H]1N3CCNC2 (stereo in doubt) [Compound 37, 7-methoxy-2,3,4,7b,8,9,10,10a-octahydro-1H-cyclopenta[b][1,4]diazepino[6,7,1-hi]indole]	97.6 ± 4.7	72.4 ± 14.5	22.8	4.8	91.5	–
